The subject of one series is Capan-2. The series can be described thus: Cell proliferation by MTS method, Capan-2. It counts as cell-based. The following applies: for IC50: Homo sapiens, Table 1, Capan-2, read-out: Tumour cell proliferative activity/IC50(nM) Pancreatic Cancer Capan-2. The text has this:
(§1) (2) Detection of Cell Proliferation by MTS Method
(§2) The MTS assay is a method for indirectly determining the number of living cells via colourimetric method. MTS is a newly synthesised tetrazole compound that reflects cell viability, which can be reduced by succinate dehydrogenase in the mitochondria of living cells to an orange-coloured formazan with an absorbance of the reduced product measured at 490 nm being in proportion to the number of living cells, thus reflecting the cell viability. This assay can be used to evaluate the effect of the compound on the proliferation of pancreatic cancer cells, thereby determining the inhibitory effect of the compound on the proliferation of pancreatic cancer cells and to calculate the IC^50. Each cells were inoculated uniformly into a 96-well plate at a density of 1-20×10^3 cells/well, 100 μL per well, and placed in a constant temperature incubator until the cells adhered to the wall. The control group was added with the corresponding medium and the experimental groups were given different concentrations of the compound prepared by the examples of the present invention, and the cells were taken out 24-96 h after administration for observing the cell state under a microscope. Under light-proof conditions, MTS was added and well mixed, the mixture was placed in a constant temperature incubator at 37° C., and the light absorption value were measured using an enzyme marker at 490 nm and the experiment was repeated for three times, IC50 was calculated with GraphPad5 Prism software.

In a further series the target is STAT3 protein (Homo sapiens, UniProt P40763). The series can be described thus: Binding activity to STAT3 protein by microscale thermophoresis (MST). The following applies: purified STAT3 recombinant protein. From the text: (1) Determination of Binding Activities of Compounds to STAT3 Protein by Microscale Thermophoresis (MST) Method
Chain of STAT3 protein (P40763 whole entry): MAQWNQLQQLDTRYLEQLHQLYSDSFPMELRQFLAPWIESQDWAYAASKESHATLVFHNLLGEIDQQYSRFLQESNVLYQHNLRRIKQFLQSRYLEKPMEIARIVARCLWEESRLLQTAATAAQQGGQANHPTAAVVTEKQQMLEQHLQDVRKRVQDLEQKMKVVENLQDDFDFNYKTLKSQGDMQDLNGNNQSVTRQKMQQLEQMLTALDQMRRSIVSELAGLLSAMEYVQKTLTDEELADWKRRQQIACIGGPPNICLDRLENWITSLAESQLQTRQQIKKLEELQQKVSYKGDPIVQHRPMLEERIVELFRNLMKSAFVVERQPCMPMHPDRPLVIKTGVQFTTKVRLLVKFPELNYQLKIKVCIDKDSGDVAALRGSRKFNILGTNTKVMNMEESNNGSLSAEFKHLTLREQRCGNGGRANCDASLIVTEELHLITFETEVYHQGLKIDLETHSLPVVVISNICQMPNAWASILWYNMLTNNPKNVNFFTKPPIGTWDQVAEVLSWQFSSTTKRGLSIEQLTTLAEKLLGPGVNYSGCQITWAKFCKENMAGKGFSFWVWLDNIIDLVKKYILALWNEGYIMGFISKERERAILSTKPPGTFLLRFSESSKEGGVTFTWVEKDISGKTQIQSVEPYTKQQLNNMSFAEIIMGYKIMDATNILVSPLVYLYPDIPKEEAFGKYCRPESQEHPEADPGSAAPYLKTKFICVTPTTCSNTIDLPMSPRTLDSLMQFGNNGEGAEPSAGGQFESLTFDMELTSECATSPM
(§3) The microscale thermophoresis (MST) technique is a simple, rapid, and accurate method for quantifying biomolecular interactions. It can measure the movement of molecules in a microscopic temperature gradient field, as well as detect changes of molecular hydration shell, charge and size. When the Nanotemper microscale thermophoresis instrument locally heated by a infrared laser, molecules will move in a directional manner, then the molecular distribution ratio in the temperature gradient field are analyzed by a fluorescence to detect whether a small molecule compound binds to a target protein. The experimental operation is as follows: firstly, compounds to be tested are diluted in a gradient using MST test buffer, total 16 concentrations being configured; subsequently, the purified STAT3 recombinant protein is labeled using the HIS tag labeling kit, and the final concentration of the labeled protein is 100-200 nM; the labeled STAT3 proteins are well mixed with the diluted compounds and incubated and protected from light for 30 minutes; finally the samples were loaded by capillary tube and detected on the instrument. The binding constants (K^D) of small molecules to STAT3 protein were analyzed by Mo. analysis software.
Background: MST reads how a fluorescent partner responds to local heating, with and without ligand.

Another series deals with MKN45. Briefly: Cell proliferation by MTS method, MKN45. It counts as cell-based. The settings on record: Homo sapiens, MKN-45; Table 1, MKN45; read-out: Tumour cell proliferative activity/IC50(nM) gastric Cancer MKN45.
Description: as §1, §2
(Tetrazolium assays rely on reduction of a dye to a coloured formazan, in cell work by metabolically active cells.)

The next series deals with Huh7. The series can be described thus: Cell proliferation by MTS method, Huh7. It is filed as cell-based. The settings on record: Homo sapiens, Huh-7; Table 1, Huh7; read-out: Tumour cell proliferative activity/IC50(nM) Liver Cancer Huh7.
Description: as §1, §2

Another series has as its system HCC827. The series can be described thus: Cell proliferation by MTS method, HCC827. It is filed as cell-based. The following applies: Homo sapiens; Table 1, HCC827; read-out: Tumour cell proliferative activity/IC50(nM) Lung Cancer HCC827.
Description: as §1, §2

For the next series, the target named is STAT3 SH2 domain (Homo sapiens, UniProt P40763). The series can be described thus: Microscale thermophoresis binding to STAT3 SH2 domain. The following applies: MST, FIG. 5A; read-out: affinity for the STAT3 SH2 domain.
Chain of STAT3 SH2 domain (P40763 580-670 limits assumed): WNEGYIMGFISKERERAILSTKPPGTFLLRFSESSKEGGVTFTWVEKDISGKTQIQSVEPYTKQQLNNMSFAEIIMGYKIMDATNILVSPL
Description: as §3
(1) Microscale Thermophoresis Experiment
The method is as described in Example 40.

The conditions of series [1]: dose of 25 mg/kg, cited from earlier work.

pIC50, pKd: −log10 of the molar value. Read-outs that look alike come from different tables or passages of the source.

As to `Cn1c(C(=O)N2CCN(Cc3ccc(C(F)(F)F)cc3)CC2)cc2ccc(Oc3cnc(-c4nc(-c5ccc(C(F)(F)F)cc5)no4)cn3)cc21` [Example 30, (1-methyl-6-((5-(3-(4-(trifluoromethyl)phenyl)-1,2,4-oxadiazol-5-yl)pyrazin-2-yl)oxy)-1H-indol-2-yl)(4-(4-(trifluoromethyl)benzyl)piperazin-1-yl)methanone], the IC50 in the series with Capan-2, in the series on MKN45, in the series with Huh7 and with HCC827 was less than 1000 nM each time. For the same compound, at STAT3 protein, the pKd is greater than 6.00.
For the compound `COc1ccc(CN2CCN(C(=O)c3cc4ccc(Oc5cnc(-c6nc(-c7ccc(C(F)(F)F)cc7)no6)cn5)cc4n3C)CC2)cc1` [Example 31, (4-(4-methoxybenzyl)piperazin-1-yl)(1-methyl-6-((5-(3-(4-(trifluoromethyl)phenyl)-1,2,4-oxadiazol-5-yl)pyrazin-2-yl)oxy)-1H-indol-2-yl)methanone], the IC50 with Capan-2, in the series on MKN45, in the series on Huh7 and in the series with HCC827 was less than 100 nM each time. Moreover, the pKd at STAT3 protein was greater than 7.00.
As to `Cn1c(C(=O)N2CCN(Cc3cccc(OCC(F)(F)F)c3)CC2)cc2ccc(Oc3cnc(-c4nc(-c5ccc(C(F)(F)F)cc5)no4)cn3)cc21` [Example 32, (1-methyl-6-((5-(3-(4-(trifluoromethyl)phenyl)-1,2,4-oxadiazol-5-yl)pyrazin-2-yl)oxy)-1H-indol-2-yl)(4-(3-(2,2,2-trifluoroethoxy)benzyl)piperazin-1-yl)methanone], the IC50 in the series with Capan-2, in the series with MKN45, in the series with Huh7 and in the series on HCC827 was less than 100 nM each time. Further, the pKd on STAT3 protein was greater than 7.00.
Take `Cn1c(C(=O)N2CCN(Cc3ccccc3OCC(F)(F)F)CC2)cc2ccc(Oc3cnc(-c4nc(-c5ccc(C(F)(F)F)cc5)no4)cn3)cc21` [Example 33, (1-methyl-6-((5-(3-(4-(trifluoromethyl)phenyl)-1,2,4-oxadiazol-5-yl)pyrazin-2-yl)oxy)-1H-indol-2-yl)(4-(2-(2,2,2-trifluoroethoxy)benzyl)piperazin-1-yl)methanone]: the IC50 in the series with Capan-2, in the series on MKN45, in the series on Huh7 and with HCC827 was less than 1000 nM each time. Further, the pKd at STAT3 protein was greater than 7.00.
In the case of `CN1CCN(C(=O)c2cc3ccc(Oc4cnc(-c5nc(-c6ccc(C(F)(F)F)cc6)no5)cn4)cc3n2C)CC1` [Example 34, (1-methyl-6-((5-(3-(4-(trifluoromethyl)phenyl)-1,2,4-oxadiazol-5-yl)pyrazin-2-yl)oxy)-1H-indol-2-yl)(4-methylpiperazin-1-yl)methanone], the IC50 in the series on Capan-2, with MKN45, in the series on Huh7 and with HCC827 was less than 1000 nM in each case. Also, at STAT3 protein, the pKd was greater than 7.00.
Take `CCN1CCN(C(=O)c2cc3ccc(Oc4cnc(-c5nc(-c6ccc(C(F)(F)F)cc6)no5)cn4)cc3n2C)CC1` [Example 35, (4-ethylpiperazin-1-yl)(1-methyl-6-((5-(3-(4-(trifluoromethyl)phenyl)-1,2,4-oxadiazol-5-yl)pyrazin-2-yl)oxy)-1H-indol-2-yl)methanone]: the IC50 in the series with Capan-2, in the series on MKN45, with Huh7 and with HCC827 was less than 1000 nM throughout. The pKd at STAT3 protein is greater than 7.00.
`CCCN1CCN(C(=O)c2cc3ccc(Oc4cnc(-c5nc(-c6ccc(C(F)(F)F)cc6)no5)cn4)cc3n2C)CC1` [Example 36]: the IC50 with Capan-2, in the series with MKN45, in the series with Huh7 and in the series on HCC827 was less than 1000 nM throughout. In addition, the pKd at STAT3 protein was greater than 7.00.
As to `COC(=O)CN1CCN(C(=O)c2cc3ccc(Oc4cnc(-c5nc(-c6ccc(C(F)(F)F)cc6)no5)cn4)cc3n2C)CC1` [Example 37, Methyl 2-(4-(1-methyl-6-((5-(3-(4-(trifluoromethyl)phenyl)-1,2,4-oxadiazol-5-yl)pyrazin-2-yl)oxy)-1H-indol-2-carbonyl)piperazin-1-yl)acetate], the IC50 with Capan-2, in the series on MKN45, in the series with Huh7 and in the series on HCC827 was less than 1000 nM in each case. Further, the pKd on STAT3 protein is greater than 7.00.
As for `Cn1c(C(=O)N2CCN(C(=O)CCl)CC2)cc2ccc(Oc3cnc(-c4nc(-c5ccc(C(F)(F)F)cc5)no4)cn3)cc21` [Example 38, 2-chloro-1-(4-(1-methyl-6-((5-(3-(4-(trifluoromethyl)phenyl)-1,2,4-oxadiazol-5-yl)pyrazin-2-yl)oxy)-1H-indol-2-carbonyl)piperazin-1-yl)ethanone], the IC50 in the series on Capan-2, in the series on MKN45, in the series on Huh7 and with HCC827 was less than 1000 nM throughout. In addition, on STAT3 protein, the pKd is greater than 7.00.
`Cn1c(C(=O)N2CCN(C(=O)c3ccc(C(F)(F)F)cc3)CC2)cc2ccc(Oc3cnc(-c4nc(-c5ccc(C(F)(F)F)cc5)no4)cn3)cc21` [Example 39]: the IC50 in the series on Capan-2, in the series on MKN45, in the series on Huh7 and in the series on HCC827 was less than 1000 nM each time. For the same compound, on STAT3 protein, the pKd was greater than 7.00.
In the case of `Cc1nc(-c2nc(-c3ccc(OC(F)(F)F)cc3)no2)nn1Cc1cccc(N2CCC(S(C)(=O)=O)CC2)c1` [IACS-010759, reference compound], in the series with Capan-2 (Capan-2, FIG. 5B, read-out: IC50, inhibition of proliferation of pancreatic cancer cells), the pIC50 was 8.57. The pKd at STAT3 SH2 domain is 5.56. Moreover, the “mortality in the mouse model” value in series [1] (25 mg/kg) is given as “all mice in the administered group died”; in series [1] (listed as IACS-101759, 25 mg/kg) it was “all mice died”.

Source of the values: US12448372B2, “Class of triaromatic compounds targeting bifunctional phosphorylation site of STAT3 and applications thereof” (SHANGHAI YUYAO BIOTECH LTD., priority 2019, dated 2025).
